Experimental data published in patent publication US8435929B2, “1-aminocyclopropane carboxylic acid as a fruit thinner” (Valent BioSciences Corporation, priority 2009, dated 2013).

Key:
[1] = test system: cotton cotyledons; experiment: Cotton cotyledon bioassay, ethylene production; type: in vivo
Description: For laboratory and growth chamber studies, deionized ultra-pure water was used in preparing solutions. Spray solutions were used as soon as possible after mixing. All spray solutions were amended with spray adjuvants as appropriate. A cotton cotyledon bioassay was used in the laboratory to study the effects of ACC or ethephon on induction of ethylene. Ten day old cotton plants with fully expanded cotyledons were used. Sprays were made to the upper (adaxial) surface of the leaves and the plants were then incubated in growth cabinets at the temperatures indicated. The cotyledons were excised at the times indicated and placed in sealed plastic vials. Headspace ethylene samples were measured on a Hewlett Packard 5890 gas chromatograph equipped with a packed Haysep T column (Alltech, Deerfield, Ill.) and a flame ionization detector.
Selected characteristics of ACC conversion to ethylene (i.e. dose response, time course, and temperature effect) were assessed to determine whether the relative consistence of ACC as a stone fruit and apple thinner was related to performance as an ethylene producer. In these bioassays, ACC solutions were applied to cotton cotyledons by a hand sprayer at the doses indicated and all spray solutions contained 0.05% (v/v) L-77.
In the first study, the effect of ACC dose sprays on ethylene produced by cotton cotyledons was determined. (Table 16). Cotton plants were sprayed with solution (ACC at 1, 10, 25, 50, 100, 250, 500, or 1000 ppm) and the cotyledons were excised 6 or 24 h after spraying and incubated in sealed tubes for 4 h. Ethylene levels were determined production was assayed.
In the second study, the time course of ethylene production following application of 500 mg/liter ACC or ethephon was determined (Table 17).
In the third study, the effect of temperature on ethylene production following ACC or ethephon application was determined (Table 18). The incubation of the plants following spraying and the incubation of the detached leaves were performed at 25 and 35° C.

[2] = test system: Babygold #5 peaches; experiment: Scaffold gummosis rating of Babygold #5 peaches; type: in vivo, peach
Description: Gummosis is a physiological stress response in which sap oozes from fractures in tree bark and often leads to tree decline. Use of 2-chloroethylphosphonic acid as a stone fruit thinning has been limited because it can stimulate severe incidences of gummosis of stone fruit.

[3] = test system: Babygold #5 peach; experiment: Field thinning study, fruit set of Babygold #5 peach; type: in vivo; details: rate not given, 10 mm fruitlet timing
[4] = test system: PF-27 peaches; experiment: Field thinning study, ACC and ABA, fruit set of PF-27 peaches; type: in vivo, peach; details: 1000 ppm, application at shuck split
Description: Application of ACC alone at shuck split reduced fruit set in a dose dependent manner (Table 10).

Structure (SMILES)	Ethylene production ([1]; 200 ppm, 24 h after application, incubated at 25 C)	Ethylene production ([1]; 200 ppm, 24 h after application, incubated at 35 C)	Ethylene production ([1]; 500 ppm, 1 h following spray application, 25 C (time course))	Ethylene production ([1]; 500 ppm, 4 h following spray application, 25 C (time course))	Ethylene production ([1]; 500 ppm, 15 h following spray application, 25 C (time course))	Ethylene production ([1]; 500 ppm, 24 h following spray application, 25 C (time course))	Ethylene production ([1]; 500 ppm, 48 h following spray application, 25 C (time course))	Gummosis (in words) ([2]; Babygold #5 peaches, Table 11 study)	Scaffold Gummosis (0 = no gummosis to 5 = severe gummosis) ([2]; rate not given, 10 mm fruitlet timing, scale 0-5)	Percent Fruit Set [3] [%]	Crop load (percent) of treated trees compared to the untreated control [4] [%]	Percent fruit set [4] [%]
O=P(O)(O)CCCl [Ethephon, 2-chloroethylphosphonic acid, reference compound]	41.0 nl/g leaf weight/h incubated	133.1 nl/g leaf weight/h incubated	153.4 nl/g leaf weight/h incubated	102.5 nl/g leaf weight/h incubated	106.0 nl/g leaf weight/h incubated	90.8 nl/g leaf weight/h incubated	58.5 nl/g leaf weight/h incubated	substantially increased gummosis	4.7	8.4		
CC1=CC(=O)CC(C)(C)[C@@]1(O)/C=C/C(C)=C\C(=O)O [ABA, abscisic acid, reference compound]											80	69
